Assay results: patent US20100022491A1, “4-HYDROXY-2-OXO-2,3-DIHYDRO-1,3-BENZOTHIAZOL-7YL COMPOUNDS FOR MODULATION OF B2-ADRENORECEPTOR ACTIVITY” (ASTRAZENECA AB, priority 2006, published 2010)
Where a name gives a salt, the structure may show the parent alone.

Target: T1, recombinant human α1D receptor (Homo sapiens, UniProt P25100)
T1 construct: expressed in transfected cells; host or cells: HEK293
T1 sequence (P25100 1-572): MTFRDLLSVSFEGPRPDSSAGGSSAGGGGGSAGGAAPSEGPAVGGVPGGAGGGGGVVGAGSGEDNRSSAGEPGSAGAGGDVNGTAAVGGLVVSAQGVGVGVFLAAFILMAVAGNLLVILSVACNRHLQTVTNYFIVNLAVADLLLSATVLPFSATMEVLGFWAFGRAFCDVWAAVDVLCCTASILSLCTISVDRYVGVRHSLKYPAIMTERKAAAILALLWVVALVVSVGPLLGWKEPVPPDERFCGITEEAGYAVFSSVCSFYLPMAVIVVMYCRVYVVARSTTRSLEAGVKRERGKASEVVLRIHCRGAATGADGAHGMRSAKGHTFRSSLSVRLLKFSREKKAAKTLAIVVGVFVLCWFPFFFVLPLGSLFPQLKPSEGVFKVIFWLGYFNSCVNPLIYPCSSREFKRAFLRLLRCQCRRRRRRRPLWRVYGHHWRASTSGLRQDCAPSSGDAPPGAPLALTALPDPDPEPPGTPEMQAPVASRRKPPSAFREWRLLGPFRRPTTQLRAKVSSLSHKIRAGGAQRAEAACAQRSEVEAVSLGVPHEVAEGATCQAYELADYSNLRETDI
Experiment: Adrenergic α1D selectivity binding assay ([3H]-prazosin)
Conditions: inhibition of [3H]-prazosin (0.3 nM) binding, HEK293 membranes; for IC50: read-out: α1 bind pIC50 (converted)
Method: Membranes were prepared from human embryonic kidney 293 (HEK293) cells expressing recombinant human α1D receptor. These were diluted in Assay Buffer (50 mM HEPES, 1 mM EDTA, 0.1% gelatin, pH 7.4) to provide a final concentration of membranes that gave a clear window between maximum and minimum specific binding.
Assays were performed in U-bottomed 96-well polypropylene plates. 10 μL [^3H]-prazosin (0.3 nM final concentration) and 10 μL of test compound (10× final concentration) were added to each test well. For each assay plate 8 replicates were obtained for [^3H]-prazosin binding in the presence of 10 μL vehicle (10% (v/v) DMSO in Assay Buffer; defining maximum binding) or 10 μL BMY7378 (10 μM final concentration; defining non-specific binding (NSB)). Membranes were then added to achieve a final volume of 100 μL. The plates were incubated for 2 hours at room temperature and then filtered onto PEI coated GF/B filter plates, pre-soaked for 1 hour in Assay Buffer, using a 96-well plate Tomtec cell harvester. Five washes with 250 μL wash buffer (50 mM HEPES, 1 mM EDTA, pH 7.4) were performed at 4° C. to remove unbound radioactivity. The plates were dried then sealed from underneath using Packard plate sealers and MicroScint-O (50 μL) was added to each well. The plates were sealed (TopSeal A) and filter-bound radioactivity was measured with a scintillation counter (TopCount, Packard BioScience) using a 3-minute counting protocol.
Total specific binding (B0) was determined by subtracting the mean NSB from the mean maximum binding. NSB values were also subtracted from values from all other wells. […] Data was fitted to a four parameter logistic equation to determine the compound potency, which was expressed as pIC50 (negative log molar concentration inducing 50% inhibition of [^3H]-prazosin binding).

IC50 [nM] | SMILES | α1 bind pIC50
251 | O=C(NCc1ccccc1)c1ccc(CCNCCC(=O)N(CCNCCc2ccc(O)c3[nH]c(=O)sc23)C2CCCCCC2)cc1 [Example 100, N-Benzyl-4-[2-({3-[cycloheptyl(2-{[2-(4-hydroxy-2-oxo-2,3-dihydro-1,3-benzothiazol-7-yl)ethyl]amino}ethyl)amino]-3-oxopropyl}amino)ethyl]benzamide bis-trifluoroacetic acid salt] | 
316 | O=C(CCNCCc1cccc(F)c1)N(CCNCCc1ccc(O)c2[nH]c(=O)sc12)CC12CC3CC(CC(C3)C1)C2 [Example 60, N^1-(1-Adamantylmethyl)-N^3-[2-(3-fluorophenyl)ethyl]-N^1-(2-{[2-(4-hydroxy-2-oxo-2,3-dihydro-1,3-benzothiazol-7-yl)ethyl]amino}ethyl)-β-alaninamide bis-trifluoroacetic acid salt] | 
200 | CC(C)(CO)CN(CCNCCc1ccc(O)c2[nH]c(=O)sc12)C(=O)CCNCCc1cccc(Cl)c1Cl [Example 67, N^3-[2-(2,3-Dichlorophenyl)ethyl]-N^1-(3-hydroxy-2,2-dimethylpropyl)-N^1-(2-{[2-(4-hydroxy-2-oxo-2,3-dihydro-1,3-benzothiazol-7-yl)ethyl]amino}ethyl)-β-alaninamide bis-trifluoroacetic acid salt] | 
251 | O=C(CCNCCc1cc(F)cc(F)c1)N(CCNCCc1ccc(O)c2[nH]c(=O)sc12)C1CCCCCC1 [Example 58, N^1-Cycloheptyl-N^3-[2-(3,5-difluorophenyl)ethyl]-N^1-(2-{[2-(4-hydroxy-2-oxo-2,3-dihydro-1,3-benzothiazol-7-yl)ethyl]amino}ethyl)-β-alaninamide bis-trifluoroacetic acid salt] | 
200 | COc1ccc(CCNCCC(=O)N(CCNCCc2ccc(O)c3[nH]c(=O)sc23)C2CCCCC2)cc1 [Example 68, N^1-Cyclohexyl-N^1-(2-{[2-(4-hydroxy-2-oxo-2,3-dihydro-1,3-benzothiazol-7-yl)ethyl]amino}ethyl)-N^3-[2-(4-methoxyphenyl)ethyl]-β-alaninamide bis-trifluoroacetic acid salt] | 
100 | CC(CN(C(=O)CCNCCc1cccc(F)c1)C1CCCCCC1)NCCc1ccc(O)c2[nH]c(=O)sc12 (stereo not drawn) [Example 104, N-Cycloheptyl-N^3-[2-(3-fluorophenyl)ethyl]-N-(2-{[2-(4-hydroxy-2-oxo-2,3-dihydro-1,3-benzothiazol-7-yl)ethyl]amino}propyl)-β-alaninamide bis-trifluoroacetic acid salt] | 
100 | O=C(CCNCCc1ccccc1)N(CCNCCc1ccc(O)c2[nH]c(=O)sc12)CC12CC3CC(CC(C3)C1)C2 [Example 59, N^1-(1-Adamantylmethyl)-N^1-(2-{[2-(4-hydroxy-2-oxo-2,3-dihydro-1,3-benzothiazol-7-yl)ethyl]amino}ethyl)-N^3-(2-phenylethyl)-β-alaninamide bis-trifluoroacetic acid salt] | 
200 | O=C(CCNCCc1cccc(O)c1)N(CCNCCc1ccc(O)c2[nH]c(=O)sc12)C1CCCCC1 [Example 71, N^1-Cyclohexyl-N^1-(2-{[2-(4-hydroxy-2-oxo-2,3-dihydro-1,3-benzothiazol-7-yl)ethyl]amino}ethyl)-N^3-[2-(3-hydroxyphenyl)ethyl]-β-alaninamide bis-trifluoroacetic acid salt] | 
50.1 | O=C(CCNCCc1ccc(F)cc1Cl)N(CCNCCc1ccc(O)c2[nH]c(=O)sc12)C1CCCCCC1 [Example 57, N^3-[2-(2-Chloro-4-fluorophenyl)ethyl]-N^1-cycloheptyl-N^1-(2-{[2-(4-hydroxy-2-oxo-2,3-dihydro-1,3-benzothiazol-7-yl)ethyl]amino}ethyl)-β-alaninamide bis-trifluoroacetic acid salt] | 
251 | CC(C)(CO)CN(CCNCCc1ccc(O)c2[nH]c(=O)sc12)C(=O)CCNCCc1cccc(Cl)c1 [Example 66, N^3-[2-(3-Chlorophenyl)ethyl]-N^1-(3-hydroxy-2,2-dimethylpropyl)-N^1-(2-{[2-(4-hydroxy-2-oxo-2,3-dihydro-1,3-benzothiazol-7-yl)ethyl]amino}ethyl)-β-alaninamide bis-trifluoroacetic acid salt] | 

The remaining lines, values behind:

SMILES | IC50 [nM] | α1 bind pIC50
O=C(CCNCCc1ccccc1Cl)N(CCNCCc1ccc(O)c2[nH]c(=O)sc12)C1CCCC1 [Example 29, N^3-[2-(2-Chlorophenyl)ethyl]-N-cyclopentyl-N-(2-{[2-(4-hydroxy-2-oxo-2,3-dihydro-1,3-benzothiazol-7-yl)ethyl]amino}ethyl)-β-alaninamide bis-trifluoroacetic acid salt] | 100 | 
O=C(CCNCCc1ccc(F)cc1)N(CCNCCc1ccc(O)c2[nH]c(=O)sc12)C1CCCCC1 [Example 16, N-Cyclohexyl-N^3-[2-(4-fluorophenyl)ethyl]-N-(2-{[2-(4-hydroxy-2-oxo-2,3-dihydro-1,3-benzothiazol-7-yl)ethyl]amino}ethyl)-β-alaninamide bis-trifluoroacetic acid salt] | 100 | 
Cc1cccc(CCNCCC(=O)N(CCNCCc2ccc(O)c3[nH]c(=O)sc23)C2CCOCC2)c1 [Example 25, N-(2-{[2-(4-Hydroxy-2-oxo-2,3-dihydro-1,3-benzothiazol-7-yl)ethyl]amino}ethyl)-N^3-[2-(3-methylphenyl)ethyl]-N-(tetrahydro-2H-pyran-4-yl)-β-alaninamide bis-trifluoroacetic acid salt] | 251 | 
O=C(CCNCCc1cccc(Cl)c1)N(CCNCCc1ccc(O)c2[nH]c(=O)sc12)C1CCCCC1 [Example 12, N^3-[2-(3-Chlorophenyl)ethyl]-N-cyclohexyl-N-(2-{[2-(4-hydroxy-2-oxo-2,3-dihydro-1,3-benzothiazol-7-yl)ethyl]amino}ethyl)-β-alaninamide bis-trifluoroacetic acid salt] | 200 | 
O=C(CCNCCc1cccc(F)c1)N(CCNCCc1ccc(O)c2[nH]c(=O)sc12)C1CCCCC1 [Example 15, N-Cyclohexyl-N^3-[2-(3-fluorophenyl)ethyl]-N-(2-{[2-(4-hydroxy-2-oxo-2,3-dihydro-1,3-benzothiazol-7-yl)ethyl]amino}ethyl)-β-alaninamide bis-trifluoroacetic acid salt] |  | 6.7
O=C(CCNCCc1cccc(F)c1F)N(CCNCCc1ccc(O)c2[nH]c(=O)sc12)C1CCCCC1 [Example 93, N-Cyclohexyl-N^3-[2-(2,3-difluorophenyl)ethyl]-N-(2-{[2-(4-hydroxy-2-oxo-2,3-dihydro-1,3-benzothiazol-7-yl)ethyl]amino}ethyl)-β-alaninamide dihydrobromide salt] |  | 6.7
O=C(CCNCCc1ccccc1)N(CCNCCc1ccc(O)c2[nH]c(=O)sc12)C1CCCCCC1 [Example 23, N-Cycloheptyl-N-(2-{[2-(4-hydroxy-2-oxo-2,3-dihydro-1,3-benzothiazol-7-yl)ethyl]amino}ethyl)-N^3-(2-phenylethyl)-β-alaninamide bis-trifluoroacetic acid salt] |  | 7.2
O=C(CCNCCc1ccc(Cl)cc1)N(CCNCCc1ccc(O)c2[nH]c(=O)sc12)C1CCCCCC1 [Example 51, N^3-[2-(4-Chlorophenyl)ethyl]-N^1-cycloheptyl-N^1-(2-{[2-(4-hydroxy-2-oxo-2,3-dihydro-1,3-benzothiazol-7-yl)ethyl]amino}ethyl)-β-alaninamide bis-trifluoroacetic acid salt] | 316 | 
O=C(CCNCCc1cccs1)N(CCNCCc1ccc(O)c2[nH]c(=O)sc12)C1CCCCCC1 [Example 52, N^1-Cycloheptyl-N^1-(2-{[2-(4-hydroxy-2-oxo-2,3-dihydro-1,3-benzothiazol-7-yl)ethyl]amino}ethyl)-N^3-[2-(2-thienyl)ethyl]-β-alaninamide bis-trifluoroacetic acid salt] | 100 | 
O=C(CCNCCc1cccc(Cl)c1)N(CCNCCc1ccc(O)c2[nH]c(=O)sc12)C1Cc2ccccc2C1 [Example 42, N^3-[2-(3-Chlorophenyl)ethyl]-N^1-(2,3-dihydro-1H-inden-2-yl)-N^1-(2-{[2-(4-hydroxy-2-oxo-2,3-dihydro-1,3-benzothiazol-7-yl)ethyl]amino}ethyl)-β-alaninamide bis-trifluoroacetic acid salt] | 63.1 | 
